From patent publication US8637252B2, “Methods and compositions for determining altered susceptibility of HIV-1 to anti-HIV drugs” (Monogram Biosciences, Inc., priority 2011, dated 2014)

What follows are molecules tested on HIV-1 (PRRT-RHIN segment of patient sample 62) (assay: phenotypic drug resistance test, PRRT-RHIN amplicon of sample 62).
Assay type: cell-based
From the text: Patient-derived segment(s) corresponding to the entire pol gene, encoding HIV protease, reverse transcriptase (including RNAse H), and integrase (hereinafter “POL”), the portion of pol encoding amino acids 1-305 of reverse transcriptase (hereinafter “PR-RT”), the portion of pol encoding amino acids 319-440 of reverse transcriptase (including RNAse H), and integrase (hereinafter “RHIN”), were amplified by the reverse transcription-polymerase chain reaction method (RT-PCR) using viral RNA isolated from viral particles present in the plasma or serum of HIV-infected individuals as described below. The portion of pol encoding protease, amino acids 1-531 of reverse transcriptase (including RNase H) (hereinafter “PRRT-RH”), or the portion of pol encoding protease, reverse transcriptase (including RNAse H) and integrase (hereinafter “PRRT-RHIN”), were assembled from amplicons described above by standard recombinant DNA techniques involving a KpnI restriction site at amino acid 400 or a Pin A1 site at amino acid 315.
Drug resistance tests performed with test vectors were carried out using packaging host and target host cells consisting of the human embryonic kidney cell line 293.
Resistance tests were carried out with the RTV libraries by using viral particles comprising the RTV libraries to infect a host cell in which the expression of the indicator gene is measured. The amount of indicator gene (luciferase) activity detected in infected cells is used as a direct measure of “infectivity,” i.e., the ability of the virus to complete a single round of replication. Thus, drug resistance or sensitivity can be determined by plotting the amount of luciferase activity produced by patient derived viruses in the presence of varying concentrations of the antiviral drug. By identifying the concentration of drug at which luciferase activity is half-maximum, the IC50 of the virus from which patient-derived segment(s) were obtained for the antiretroviral agent can be determined. […]

How did the “Fold Change in IC50, PRRT-RHIN amplicon” value turn out when `CC(C)Nc1cccnc1N1CCN(C(=O)c2cc3cc(NS(C)(=O)=O)ccc3[nH]2)CC1` [DLV, delavirdine] was run?
The value was 140.00 fold.

Which “Fold Change in IC50, PRRT-RHIN amplicon” value does the source give for `O=C1Nc2ccc(Cl)cc2[C@@](C#CC2CC2)(C(F)(F)F)O1` [EFV, efavirenz] here?
The value was 202.00 fold.

`Cc1ccnc2c1NC(=O)c1cccnc1N2C1CC1` [NVP, nevirapine] was tested. Which “Fold Change in IC50, PRRT-RHIN amplicon” value did it give?
The value was 400.00 fold.
